Measurements published in patent CN1221752A, “与阿卡加定相关的新型羊毛硫抗生素及其制备方法和用途” (priority 1997, dated 1999).
Where two headings read alike, the source gives them in different places.

Assays:
[1] = Tolerability and toxicity; conditions: at the active concentration and the concentrations mentioned above
粪肠球菌 02D2uC5 = assay: In vitro antibacterial activity, MIC, 18 h; assay type: cell-based; conditions: incubation time 18h; strain 02D2uC5
Streptogr G02G0CB2 = assay: In vitro antibacterial activity, MIC, 18 h; assay type: cell-based, Streptogr G; conditions: incubation time 18h; strain 02G0CB2
S.milleri 02milGR12 = assay: In vitro antibacterial activity, MIC, 18 h; assay type: cell-based; conditions: incubation time 18h; strain 02milGR12
大肠杆菌 = assay type: cell-based
[2] = test system: Staph.coag.negative012HT5; assay: In vitro antibacterial activity, MIC, 18 h; assay type: cell-based, Staph.coag.negative; conditions: incubation time 18h; strain 012HT5
化脓葡萄球菌 02A1F16 = assay: In vitro antibacterial activity, MIC, 18 h; assay type: cell-based; conditions: incubation time 18h; strain 02A1F16
化脓葡萄球菌 02A1SJ1 = assay: In vitro antibacterial activity, MIC, 18 h; assay type: cell-based; conditions: incubation time 18h; strain 02A1SJ1
金黄色葡萄球菌SG511 = assay type: cell-based, 金黄色葡萄球菌
011HT3 = assay: In vitro antibacterial activity, MIC, 18 h; assay type: cell-based; conditions: incubation time 18h
金黄色葡萄球菌Exp54146 = assay type: cell-based, 金黄色葡萄球菌; conditions: strain Exp54146
粪肠球茵 02D2DU18 = assay: In vitro antibacterial activity, MIC, 18 h; assay type: cell-based; conditions: incubation time 18h; strain 02D2DU18
屎肠球菌M78L = assay type: cell-based, 屎肠球菌; conditions: strain M78L
[3] = Stability in solution (physicochemical properties); conditions: neutral / weakly alkaline vs strongly acidic / strongly alkaline media
粪肠球菌 02D2HM9 = assay: In vitro antibacterial activity, MIC, 18 h; assay type: cell-based; conditions: incubation time 18h; strain 02D2HM9
金黄色葡萄球菌 011CB20 = assay: In vitro antibacterial activity, MIC, 18 h; assay type: cell-based; conditions: incubation time 18h; strain 011CB20
化脓葡萄球菌 02A1CU1 = assay: In vitro antibacterial activity, MIC, 18 h; assay type: cell-based; conditions: incubation time 18h; strain 02A1CU1
011HT18 = assay: In vitro antibacterial activity, MIC, 18 h; assay type: cell-based; conditions: incubation time 18h; strain 011HT18
S.mitis 02mitGR16 = assay: In vitro antibacterial activity, MIC, 18 h; assay type: cell-based; conditions: incubation time 18h; strain 02mitGR16
金黄色葡萄球菌 011DU5 = assay: In vitro antibacterial activity, MIC, 18 h; assay type: cell-based; conditions: incubation time 18h; strain 011DU5
粪肠球菌 02D2HT10 = assay: In vitro antibacterial activity, MIC, 18 h; assay type: cell-based; conditions: incubation time 18h; strain 02D2HT10
表皮葡萄球菌 012GO42 = assay: In vitro antibacterial activity, MIC, 18 h; assay type: cell-based; conditions: incubation time 18h; strain 012GO42
表皮葡萄球菌 012GO20 = assay: In vitro antibacterial activity, MIC, 18 h; assay type: cell-based; conditions: incubation time 18h; strain 012GO20
[4] = Solubility (physicochemical properties); conditions: methanol, water
S.pnenmoniae 030BI2 = assay: In vitro antibacterial activity, MIC, 18 h; assay type: cell-based; conditions: incubation time 18h; strain 030BI2
化脓葡萄球菌A561 = assay type: cell-based, 化脓葡萄球菌; conditions: strain A561
金黄色葡萄球菌 0121O64 = assay: In vitro antibacterial activity, MIC, 18 h; assay type: cell-based; conditions: incubation time 18h; strain 0121O64
金黄色葡萄球菌 O11HT1 = assay: In vitro antibacterial activity, MIC, 18 h; assay type: cell-based; conditions: incubation time 18h; strain O11HT1
[5] = incubation time 24h, strain SG511
[6] = incubation time 24h, strain SG511 + 10% serum
[7] = strain 011HT3 + 50% serum (first such line)
[8] = strain 011HT3 + 50% serum (second such line)
[9] = Boc-derivative table, 接种时间24h, strain SG511
[10] = Boc-derivative table, 接种时间24h, strain SG511 + 10% serum

| Substance | MIC (粪肠球菌 02D2uC5) | MIC (Streptogr G02G0CB2) | MIC (S.milleri 02milGR12) | MIC (大肠杆菌; incubation time 24h) | MIC [2] | MIC (化脓葡萄球菌 02A1F16) | MIC (化脓葡萄球菌 02A1SJ1) | MIC (金黄色葡萄球菌SG511; [5]) | MIC (金黄色葡萄球菌SG511; [6]) | MIC (011HT3; strain 011HT3) | MIC (011HT3; [7]) | MIC (011HT3; [8]) | MIC (金黄色葡萄球菌Exp54146; incubation time 24h) | MIC (粪肠球茵 02D2DU18) | MIC (屎肠球菌M78L; incubation time 24h) | MIC (粪肠球菌 02D2HM9) | MIC (化脓葡萄球菌 02A1CU1) | MIC (011HT18) | MIC (S.mitis 02mitGR16) | MIC (化脓葡萄球菌A561; incubation time 24h) | further results |
| --- | --- | --- | --- | --- | --- | --- | --- | --- | --- | --- | --- | --- | --- | --- | --- | --- | --- | --- | --- | --- | --- |
| Ala(0)-阿卡加定 | 20 µg/mL | 20 µg/mL | 40 µg/mL | > 40 µg/mL | > 40 µg/mL | ≤ 0.04 µg/mL | ≤ 0.04 µg/mL | 5 µg/mL | 20 µg/mL | 20 µg/mL | 20 µg/mL | 40 µg/mL | 40 µg/mL | 5 µg/mL | 5 µg/mL | > 40 µg/mL | ≤ 0.04 µg/mL | > 40 µg/mL | 20 µg/mL | ≤ 0.04 µg/mL | Cytotoxicity or other toxicity [1]: 没有发现其细胞毒性或其它的毒性; Tolerability [1]: 耐受性很好; Stability in solution [3]: 于中性和弱碱性介质中稳定，但于强酸性和强碱性溶液中不稳定; MIC (金黄色葡萄球菌 011CB20): > 40 µg/mL; MIC (金黄色葡萄球菌 011DU5): 40 µg/mL; MIC (粪肠球菌 02D2HT10): > 40 µg/mL; MIC (表皮葡萄球菌 012GO42): > 40 µg/mL; MIC (表皮葡萄球菌 012GO20): > 40 µg/mL; Solubility [4]: 溶于甲醇和水; MIC (S.pnenmoniae 030BI2): 2.5 µg/mL; MIC (金黄色葡萄球菌 0121O64): > 40 µg/mL; MIC (金黄色葡萄球菌 O11HT1): 1.1 µg/mL |
| Boc-Ile(0)-阿卡加定 [Boc-Ile-Acta] | – | – | – | – | – | – | – | – | – | – | – | – | – | – | – | – | – | – | – | – | MIC (大肠杆菌; Boc-derivative table, 接种时间24h): > 40 µg/mL; MIC (金黄色葡萄球菌SG511; [9]): 20 µg/mL; MIC (金黄色葡萄球菌SG511; [10]): 40 µg/mL; MIC (金黄色葡萄球菌Exp54146; Boc-derivative table, 接种时间24h): > 40 µg/mL; MIC (屎肠球菌M78L; Boc-derivative table, 接种时间24h): > 40 µg/mL; MIC (化脓葡萄球菌A561; Boc-derivative table, 接种时间24h): > 40 µg/mL |
| Gln(0)-阿卡加定 [Gln-Acta] | – | – | – | > 40 µg/mL | – | – | – | 20 µg/mL | 40 µg/mL | – | – | – | > 40 µg/mL | – | 10 µg/mL | – | – | – | – | 5 µg/mL | – |
| Ile(0)-阿卡加定 [Ile-Acta] | 40 µg/mL | 10 µg/mL | > 40 µg/mL | > 40 µg/mL | > 40 µg/mL | ≤ 0.04 µg/mL | ≤ 0.04 µg/mL | 1.2 µg/mL | 2.5 µg/mL | 2.5 µg/mL | 2.5 µg/mL | 5 µg/mL | 2.5 µg/mL | 5 µg/mL | 5 µg/mL | 40 µg/mL | ≤ 0.04 µg/mL | > 40 µg/mL | 10 µg/mL | ≤ 0.04 µg/mL | MIC (金黄色葡萄球菌 011CB20): 40 µg/mL; MIC (金黄色葡萄球菌 011DU5): 10 µg/mL; MIC (粪肠球菌 02D2HT10): > 40 µg/mL; MIC (表皮葡萄球菌 012GO42): > 40 µg/mL; MIC (表皮葡萄球菌 012GO20): > 40 µg/mL; MIC (S.pnenmoniae 030BI2): 1.2 µg/mL; MIC (金黄色葡萄球菌 0121O64): > 40 µg/mL; MIC (金黄色葡萄球菌 O11HT1): 1.2 µg/mL |
| Lys(0)-阿卡加定 [Lys-Acta] | 40 µg/mL | 5 µg/mL | 40 µg/mL | > 40 µg/mL | > 40 µg/mL | ≤ 0.04 µg/mL | ≤ 0.04 µg/mL | 1.2 µg/mL | 2.5 µg/mL | 10 µg/mL | 10 µg/mL | 10 µg/mL | 10 µg/mL | 5 µg/mL | 5 µg/mL | > 40 µg/mL | ≤ 0.04 µg/mL | > 40 µg/mL | 10 µg/mL | ≤ 0.04 µg/mL | MIC (金黄色葡萄球菌 011CB20): > 40 µg/mL; MIC (金黄色葡萄球菌 011DU5): 10 µg/mL; MIC (粪肠球菌 02D2HT10): > 40 µg/mL; MIC (表皮葡萄球菌 012GO42): > 40 µg/mL; MIC (表皮葡萄球菌 012GO20): > 40 µg/mL; MIC (S.pnenmoniae 030BI2): 2.5 µg/mL; MIC (金黄色葡萄球菌 0121O64): > 40 µg/mL; MIC (金黄色葡萄球菌 O11HT1): 0.6 µg/mL |
| N-Boc-Abu(0)-阿卡加定 [Boc-Abu-Acta] | – | – | – | – | – | – | – | – | – | – | – | – | – | – | – | – | – | – | – | – | MIC (大肠杆菌; Boc-derivative table, 接种时间24h): > 40 µg/mL; MIC (金黄色葡萄球菌SG511; [9]): 5 µg/mL; MIC (金黄色葡萄球菌SG511; [10]): 10 µg/mL; MIC (金黄色葡萄球菌Exp54146; Boc-derivative table, 接种时间24h): > 40 µg/mL; MIC (屎肠球菌M78L; Boc-derivative table, 接种时间24h): > 40 µg/mL; MIC (化脓葡萄球菌A561; Boc-derivative table, 接种时间24h): > 40 µg/mL |
| Phe(0)-阿卡加定 [Phe-Acta] | – | – | – | > 40 µg/mL | – | – | – | 0.6 µg/mL | 5 µg/mL | – | – | – | 5 µg/mL | – | > 40 µg/mL | – | – | – | – | > 40 µg/mL | – |
| Phe-Ala(0)-阿卡加定 [Phe-Ala-Acta] | – | – | – | > 40 µg/mL | – | – | – | 5 µg/mL | 10 µg/mL | – | – | – | 20 µg/mL | – | 10 µg/mL | – | – | – | – | > 40 µg/mL | – |
| 二-Boc-Lys(0)-阿卡加定 [Boc-Lys-Acta] | 40 µg/mL | 2.5 µg/mL | 5 µg/mL | – | > 40 µg/mL | ≤ 0.04 µg/mL | 0.08 µg/mL | – | – | 10 µg/mL | 20 µg/mL | 40 µg/mL | – | 10 µg/mL | – | > 40 µg/mL | ≤ 0.04 µg/mL | > 40 µg/mL | 5 µg/mL | – | MIC (大肠杆菌; Boc-derivative table, 接种时间24h): > 40 µg/mL; MIC (金黄色葡萄球菌SG511; [9]): 2.5 µg/mL; MIC (金黄色葡萄球菌SG511; [10]): 10 µg/mL; MIC (金黄色葡萄球菌Exp54146; Boc-derivative table, 接种时间24h): 10 µg/mL; MIC (屎肠球菌M78L; Boc-derivative table, 接种时间24h): 10 µg/mL; MIC (金黄色葡萄球菌 011DU5): 40 µg/mL; MIC (粪肠球菌 02D2HT10): > 40 µg/mL; MIC (表皮葡萄球菌 012GO42): > 40 µg/mL; MIC (表皮葡萄球菌 012GO20): > 40 µg/mL; MIC (S.pnenmoniae 030BI2): 1.2 µg/mL; MIC (化脓葡萄球菌A561; Boc-derivative table, 接种时间24h): ≤ 0.04 µg/mL; MIC (金黄色葡萄球菌 0121O64): > 40 µg/mL; MIC (金黄色葡萄球菌 O11HT1): 10 µg/mL |
